Reference: patent US20240270821A1, “GIP/GLP1/GCG TRI-RECEPTOR AGONISTS AND USES THEREOF” (priority 2023, published 2024)
Starred links: 1 amine or outer side, 2 acyl side, 3 side chain; linkers in the order of their positions; H or OH if unused. Non-standard residues stand in square brackets, D forms with d. Residues, ends and D or L forms follow the SMILES beside them. Groups on a side chain read outwards from the residue. *: point of attachment. C18 diacid = O=C(O)CCCCCCCCCCCCCCCCC(=O)*; αMePhe(2-F) = C[C@](N)(Cc1ccccc1F)C(=O)O; γGlu = O=C(O)[C@H](CCC(=O)[*:2])N[*:1]; αMeY = C[C@](N)(Cc1ccc(O)cc1)C(=O)O; 4Pal = N[C@@H](Cc1ccncc1)C(=O)O; αMeL = CC(C)C[C@](C)(N)C(=O)O; αMeS = C[C@](N)(CO)C(=O)O; Orn = NCCC[C@H](N)C(=O)O; AEEA = NCCOCCOCC(=O)O; Aib = CC(C)(N)C(=O)O

What was measured:
Type in all cases: cell-based
human GcgR = human GcgR (Homo sapiens, UniProt P47871); test: Functional cAMP activity in the presence of 1% HSA; details: read-out: cAMP Rel EC50, hGcgR
human GcgR, sequence (P47871 26-477): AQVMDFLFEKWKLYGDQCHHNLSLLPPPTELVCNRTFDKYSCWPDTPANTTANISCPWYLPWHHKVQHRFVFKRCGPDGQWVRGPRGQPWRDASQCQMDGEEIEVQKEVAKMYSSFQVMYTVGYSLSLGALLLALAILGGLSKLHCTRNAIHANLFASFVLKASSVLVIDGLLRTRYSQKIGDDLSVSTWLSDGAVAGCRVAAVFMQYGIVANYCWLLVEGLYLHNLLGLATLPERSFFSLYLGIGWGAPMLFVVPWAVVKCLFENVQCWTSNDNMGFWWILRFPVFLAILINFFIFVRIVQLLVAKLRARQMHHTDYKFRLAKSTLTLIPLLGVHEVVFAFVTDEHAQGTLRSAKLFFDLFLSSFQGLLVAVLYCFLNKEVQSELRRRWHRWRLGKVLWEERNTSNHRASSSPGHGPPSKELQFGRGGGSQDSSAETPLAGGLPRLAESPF

hGIPR [1] = target: T1, hGIPR (Homo sapiens, UniProt P48546); test: Functional cAMP activation in the presence of 0.1% casein (no HSA); details: read-out: Relative cAMP EC50, hGIPR;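 note: intracellular cAMP rise after 30 min at 37 °C read by HTRF against a standard curve, scaled between buffer alone (0%) and top control ligand concentration (100%), four-parameter fit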
T1 sequence (P48546 22-466): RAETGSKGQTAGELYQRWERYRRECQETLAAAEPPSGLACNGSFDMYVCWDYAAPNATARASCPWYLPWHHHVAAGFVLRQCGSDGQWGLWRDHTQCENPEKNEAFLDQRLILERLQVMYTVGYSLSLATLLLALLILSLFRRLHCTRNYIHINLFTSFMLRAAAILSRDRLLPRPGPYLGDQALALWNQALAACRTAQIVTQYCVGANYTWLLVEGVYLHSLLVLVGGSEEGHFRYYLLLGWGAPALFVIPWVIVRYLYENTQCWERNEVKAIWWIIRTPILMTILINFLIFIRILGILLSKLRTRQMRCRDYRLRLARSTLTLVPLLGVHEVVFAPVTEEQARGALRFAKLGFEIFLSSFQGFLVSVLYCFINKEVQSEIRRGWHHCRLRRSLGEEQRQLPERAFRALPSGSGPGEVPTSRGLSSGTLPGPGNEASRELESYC

hGLP-1R [2] = target: T2, hGLP-1R (Homo sapiens, UniProt P43220); test: Functional cAMP activity in the presence of 1% HSA; details: read-out: cAMP Rel EC50, hGLP-1R
T2 sequence (P43220 24-463): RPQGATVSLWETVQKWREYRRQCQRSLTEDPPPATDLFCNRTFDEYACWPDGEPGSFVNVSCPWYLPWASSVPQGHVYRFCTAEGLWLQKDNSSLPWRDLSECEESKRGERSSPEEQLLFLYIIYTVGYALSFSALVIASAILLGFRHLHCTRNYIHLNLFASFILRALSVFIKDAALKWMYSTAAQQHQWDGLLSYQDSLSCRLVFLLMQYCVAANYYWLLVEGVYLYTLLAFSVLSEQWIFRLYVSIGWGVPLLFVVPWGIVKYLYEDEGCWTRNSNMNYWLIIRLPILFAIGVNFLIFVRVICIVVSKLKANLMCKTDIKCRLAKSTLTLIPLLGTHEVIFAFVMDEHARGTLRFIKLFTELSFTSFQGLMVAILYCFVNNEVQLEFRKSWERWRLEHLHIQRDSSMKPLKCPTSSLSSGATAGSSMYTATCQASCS

hGLP-1R [3] = target: T2, hGLP-1R; test: Functional cAMP activation in the presence of 0.1% casein (no HSA); details: read-out: Relative cAMP EC50, hGLP-1R;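 note: intracellular cAMP rise after 30 min at 37 °C read by HTRF, normalized between buffer only (0%) and maximal control ligand (100%), four-parameter variable-slope fit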
hGIPR [4] = target: T1, hGIPR; test: Functional cAMP activity in the presence of 1% HSA; details: read-out: cAMP Rel EC50, hGIPR
hGcgR = hGcgR (Homo sapiens, UniProt P47871); test: Functional cAMP activation in the presence of 0.1% casein (no HSA); details: read-out: Relative cAMP EC50, hGcgR;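 note: intracellular cAMP rise after 30 min at 37 °C, read by HTRF against a cAMP standard curve, scaled from buffer only (0%) to maximal control ligand response (100%)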
hGcgR, sequence (P47871 26-477): as the sequence (P47871 26-477) above

Compound | EC50 (human GcgR) [nM] | EC50 (hGIPR [1]) [nM] | EC50 (hGLP-1R [2]) [nM] | EC50 (hGLP-1R [3]) [nM] | EC50 (hGIPR [4]) [nM] | EC50 (hGcgR) [nM]
CC[C@H](C)[C@H](NC(=O)[C@H](Cc1ccccc1)NC(=O)[C@H](C)NC(=O)C(C)(C)NC(=O)[C@H](CCC(N)=O)NC(=O)[C@H](C)NC(=O)[C@H](CCCCNC(=O)CC[C@H](NC(=O)CC[C@H](NC(=O)CCCCCCCCCCCCCCCCC(=O)O)C(=O)O)C(=O)O)NC(=O)[C@H](CCCCN)NC(=O)[C@H](CC(=O)O)NC(=O)[C@H](CC(C)C)NC(=O)[C@](C)(CC(C)C)NC(=O)[C@@H](NC(=O)[C@H](CO)NC(=O)[C@H](Cc1ccncc1)NC(=O)[C@H](CC(=O)O)NC(=O)[C@H](CO)NC(=O)[C@@H](NC(=O)[C@](C)(Cc1ccccc1F)NC(=O)[C@@H](NC(=O)CNC(=O)[C@H](CCC(N)=O)NC(=O)C(C)(C)NC(=O)[C@@H](N)Cc1ccc(O)cc1)[C@@H](C)O)[C@@H](C)O)[C@@H](C)CC)C(=O)N[C@@H](CCC(=O)O)C(=O)N[C@@H](Cc1ccc(O)cc1)C(=O)N[C@@H](CC(C)C)C(=O)N[C@@H](CCC(=O)O)C(=O)N[C@@H](CCC(=O)O)C(=O)NCC(=O)NCC(=O)N1CCC[C@H]1C(=O)N[C@@H](CO)C(=O)N[C@@H](CO)C(=O)NCC(=O)N[C@@H](C)C(=O)N1CCC[C@H]1C(=O)N1CCC[C@H]1C(=O)N1CCC[C@H]1C(=O)N[C@@H](CO)C(N)=O [Example 440] (H-Y[Aib]QGT[αMePhe(2-F)]TSD[4Pal]SI[αMeL]LDKK([γGlu-γGlu-C18 diacid])AQ[Aib]AFIEYLEEGGPSSGAPPPS-NH2) | 830 | 0.0226 | 27.4 | 0.467 | 1.81 | 7.14
CC[C@H](C)[C@H](NC(=O)[C@H](Cc1ccccc1)NC(=O)[C@H](C)NC(=O)C(C)(C)NC(=O)[C@H](CCC(N)=O)NC(=O)[C@H](C)NC(=O)[C@H](CCCCNC(=O)CC[C@H](NC(=O)CC[C@H](NC(=O)CCCCCCCCCCCCCCCCC(=O)O)C(=O)O)C(=O)O)NC(=O)[C@H](CCCN)NC(=O)[C@H](CC(=O)O)NC(=O)[C@H](CC(C)C)NC(=O)[C@](C)(CC(C)C)NC(=O)[C@@H](NC(=O)[C@H](CO)NC(=O)[C@H](Cc1ccncc1)NC(=O)[C@H](CC(=O)O)NC(=O)[C@H](CO)NC(=O)[C@@H](NC(=O)[C@](C)(Cc1ccccc1F)NC(=O)[C@@H](NC(=O)CNC(=O)[C@H](CCC(N)=O)NC(=O)C(C)(C)NC(=O)[C@@H](N)Cc1ccc(O)cc1)[C@@H](C)O)[C@@H](C)O)[C@@H](C)CC)C(=O)N[C@@H](CCC(=O)O)C(=O)N[C@@H](Cc1ccc(O)cc1)C(=O)N[C@@H](CC(C)C)C(=O)N[C@@H](CCC(=O)O)C(=O)N[C@@H](CCC(=O)O)C(=O)NCC(=O)NCC(=O)N1CCC[C@H]1C(=O)N[C@@H](CO)C(=O)N[C@@H](CO)C(=O)NCC(=O)N[C@@H](C)C(=O)N1CCC[C@H]1C(=O)N1CCC[C@H]1C(=O)N1CCC[C@H]1C(=O)N[C@@H](CO)C(N)=O [Example 441] (H-Y[Aib]QGT[αMePhe(2-F)]TSD[4Pal]SI[αMeL]LD[Orn]K([γGlu-γGlu-C18 diacid])AQ[Aib]AFIEYLEEGGPSSGAPPPS-NH2) | 855 | 0.0239 | 24.7 | 0.365 | 1.96 | 8
CC[C@H](C)[C@H](NC(=O)[C@H](Cc1ccccc1)NC(=O)[C@H](C)NC(=O)C(C)(C)NC(=O)[C@H](CCC(N)=O)NC(=O)[C@H](C)NC(=O)[C@H](CCCCNC(=O)COCCOCCNC(=O)CC[C@H](NC(=O)CCCCCCCCCCCCCCCCC(=O)O)C(=O)O)NC(=O)[C@H](CCCCN)NC(=O)[C@H](CC(=O)O)NC(=O)[C@H](CC(C)C)NC(=O)[C@](C)(CC(C)C)NC(=O)[C@@H](NC(=O)[C@H](CO)NC(=O)[C@H](Cc1ccncc1)NC(=O)[C@H](CC(=O)O)NC(=O)[C@H](CO)NC(=O)[C@@H](NC(=O)[C@](C)(Cc1ccccc1F)NC(=O)[C@@H](NC(=O)CNC(=O)[C@H](CCC(N)=O)NC(=O)C(C)(C)NC(=O)[C@@H](N)Cc1ccc(O)cc1)[C@@H](C)O)[C@@H](C)O)[C@@H](C)CC)C(=O)N[C@@H](CCC(=O)O)C(=O)N[C@@H](Cc1ccc(O)cc1)C(=O)N[C@@H](CC(C)C)C(=O)N[C@@H](CCC(=O)O)C(=O)N[C@@H](CCC(=O)O)C(=O)NCC(=O)NCC(=O)N1CCC[C@H]1C(=O)N[C@@H](CO)C(=O)N[C@@H](CO)C(=O)NCC(=O)N[C@@H](CCC(=O)O)C(=O)N1CCC[C@H]1C(=O)N1CCC[C@H]1C(=O)N1CCC[C@H]1C(=O)N[C@@H](CO)C(N)=O [Example 442] (H-Y[Aib]QGT[αMePhe(2-F)]TSD[4Pal]SI[αMeL]LDKK([AEEA-γGlu-C18 diacid])AQ[Aib]AFIEYLEEGGPSSGEPPPS-NH2; N-terminus assumed) | 342 | 0.0237 | 23.9 | 0.267 | 1.81 | 5.66
CC[C@H](C)[C@H](NC(=O)[C@H](Cc1ccccc1)NC(=O)[C@H](C)NC(=O)C(C)(C)NC(=O)[C@H](CCC(N)=O)NC(=O)[C@H](C)NC(=O)[C@H](CCCCNC(=O)COCCOCCNC(=O)CC[C@H](NC(=O)CCCCCCCCCCCCCCCCC(=O)O)C(=O)O)NC(=O)[C@H](CCCCN)NC(=O)[C@H](CC(=O)O)NC(=O)[C@H](CC(C)C)NC(=O)[C@](C)(CC(C)C)NC(=O)[C@@H](NC(=O)[C@H](CO)NC(=O)[C@H](Cc1ccncc1)NC(=O)[C@H](CC(=O)O)NC(=O)[C@H](CO)NC(=O)[C@@H](NC(=O)[C@](C)(Cc1ccccc1F)NC(=O)[C@@H](NC(=O)CNC(=O)[C@H](CCC(N)=O)NC(=O)C(C)(C)NC(=O)[C@@H](N)Cc1ccc(O)cc1)[C@@H](C)O)[C@@H](C)O)[C@@H](C)CC)C(=O)N[C@@H](CCC(=O)O)C(=O)N[C@@H](Cc1ccc(O)cc1)C(=O)N[C@@H](CC(C)C)C(=O)N[C@@H](CCC(=O)O)C(=O)N[C@@H](CCC(=O)O)C(=O)NCC(=O)NCC(=O)N1CCC[C@H]1C(=O)N[C@@H](CO)C(=O)N[C@@H](CO)C(=O)NCC(=O)N[C@@H](C)C(=O)N1CCC[C@H]1C(=O)N[C@@H](CCC(=O)O)C(=O)N1CCC[C@H]1C(=O)N[C@@H](CO)C(N)=O [Example 443] (H-Y[Aib]QGT[αMePhe(2-F)]TSD[4Pal]SI[αMeL]LDKK([AEEA-γGlu-C18 diacid])AQ[Aib]AFIEYLEEGGPSSGAPEPS-NH2) | 265 | 0.0291 | 34.3 | 0.572 | 1.57 | 6.09
CC[C@H](C)[C@H](NC(=O)[C@H](CCCN)NC(=O)[C@H](CC(=O)O)NC(=O)[C@H](CC(C)C)NC(=O)[C@](C)(CC(C)C)NC(=O)[C@@H](NC(=O)[C@](C)(CO)NC(=O)[C@H](Cc1ccncc1)NC(=O)[C@H](CC(=O)O)NC(=O)[C@H](CO)NC(=O)[C@@H](NC(=O)[C@](C)(Cc1ccccc1F)NC(=O)[C@@H](NC(=O)CNC(=O)[C@H](CCC(N)=O)NC(=O)C(C)(C)NC(=O)[C@@H](N)Cc1ccc(O)cc1)[C@@H](C)O)[C@@H](C)O)[C@@H](C)CC)C(=O)N[C@@H](C)C(=O)N[C@@H](CCC(N)=O)C(=O)NC(C)(C)C(=O)N[C@@H](CCCN)C(=O)N[C@@H](Cc1ccccc1)C(=O)N[C@H](C(=O)N[C@H](CCC(=O)O)C(=O)N[C@@](C)(Cc1ccc(O)cc1)C(=O)N[C@@H](CC(C)C)C(=O)N[C@H](C(=O)N[C@@H](CCCCNC(=O)COCCOCCNC(=O)CC[C@H](NC(=O)CCCCCCCCCCCCCCCCC(=O)O)C(=O)O)C(=O)NCC(=O)NCC(=O)N1CCC[C@H]1C(=O)N[C@@H](CO)C(=O)N[C@@H](CO)C(=O)NCC(=O)N[C@@H](CCC(=O)O)C(=O)N1CCC[C@H]1C(=O)N1CCC[C@H]1C(=O)N1CCC[C@H]1C(=O)N[C@@H](CCC(=O)O)C(N)=O)[C@@H](C)CC)[C@@H](C)CC [Example 444] (H-Y[Aib]QGT[αMePhe(2-F)]TSD[4Pal][αMeS]I[αMeL]LD[Orn]IAQ[Aib][Orn]FI[dE][αMeY]LIK([AEEA-γGlu-C18 diacid])GGPSSGEPPPE-NH2) | 1280 | 0.0106 | 54.6 | 0.352 | 1.74 | 6.49
